Experimental data reported in ChEMBL document CHEMBL1140251, “Rhodanine derivatives as inhibitors of JSP-1” (Bioorg Med Chem Lett, 2005).
pIC50: −log10 of the molar value.

How the values were obtained:
[1] = target: Dual specificity protein phosphatase 3 (Homo sapiens, UniProt P51452); assay: In vitro inhibitory concentration against VH1-related (VHR) phosphatase
[2] = target: T1, Dual specificity protein phosphatase 22 (Homo sapiens, UniProt Q9NRW4); assay: Inhibition of JNK-stimulating phosphatase-1 (JSP-1)
T1 sequence (Q9NRW4 whole entry): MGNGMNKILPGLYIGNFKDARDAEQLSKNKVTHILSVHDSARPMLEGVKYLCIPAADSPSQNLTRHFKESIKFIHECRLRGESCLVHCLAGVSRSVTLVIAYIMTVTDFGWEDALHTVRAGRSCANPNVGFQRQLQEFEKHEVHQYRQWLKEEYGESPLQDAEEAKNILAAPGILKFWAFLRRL

Chain of Dual specificity protein phosphatase 3 (P51452 whole entry): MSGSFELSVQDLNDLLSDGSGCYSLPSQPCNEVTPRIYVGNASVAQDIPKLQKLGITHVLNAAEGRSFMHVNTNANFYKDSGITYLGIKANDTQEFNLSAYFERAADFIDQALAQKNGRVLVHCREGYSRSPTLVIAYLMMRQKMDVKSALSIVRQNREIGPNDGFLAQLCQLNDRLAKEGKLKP

pIC50 [1]	pIC50 [2]	Compound
< 3.70	4.96	O=C1/C(=C/c2ccccc2)SC(=S)N1c1ccc(S(=O)(=O)O)cc1
–	< 3.70	O=C(O)c1ccc(N2C(=O)/C(=C/c3ccc(F)cc3)NC2=S)cc1
–	< 3.70	O=C(O)c1ccc(N2C(=O)S/C(=C\c3ccc(F)cc3)C2=O)cc1
< 3.70	< 3.70	O=C(O)c1ccccc1N1C(=O)/C(=C/c2ccccc2)SC1=S
< 3.70	< 3.70	O=C(O)c1ccc(/C=C2\SC(=S)N(c3cccc(C(=O)O)c3)C2=O)cc1
< 3.70	4.74	O=C(O)c1ccc(N2C(=O)/C(=C/c3ccccc3)SC2=S)cc1
–	< 3.70	O=C1/C(=C/c2ccccc2)SC(=S)N1c1ccccc1
–	< 3.70	COC(=O)c1ccc(N2C(=O)/C(=C/c3ccccc3)SC2=S)cc1
< 4.30	5.59	O=C(O)c1cccc(N2C(=O)/C(=C/c3ccc([N+](=O)[O-])cc3)SC2=S)c1
< 4.00	5.15	O=C(O)c1cccc(N2C(=O)/C(=C/c3ccccc3)SC2=S)c1 (stereo in doubt; 5t)

More lines, now with the values behind:

Compound	pIC50 [1]	pIC50 [2]
O=C1/C(=C/c2ccccc2)SC(=S)N1c1ccc(CP(=O)(O)O)cc1	< 3.70	5.00
O=C(O)Cc1cccc(N2C(=O)/C(=C/c3ccccc3)SC2=S)c1	< 3.70	4.70
Cc1cc(C(=O)O)ccc1N1C(=O)/C(=C/c2ccccc2)SC1=S	< 3.70	4.18
O=C(O)c1ccc(N2C(=O)/C(=C/c3ccc(F)cc3)OC2=S)cc1	–	< 3.70
COc1ccc(/C=C2\SC(=S)N(c3cccc(C(=O)O)c3)C2=O)cc1	< 3.70	4.59
Cc1ccc(/C=C2\SC(=S)N(c3cccc(C(=O)O)c3)C2=O)cc1	3.91	4.80
O=C(O)c1cc(C(=O)O)cc(N2C(=O)/C(=C/c3ccccc3)SC2=S)c1	< 3.70	3.99
O=C(O)c1ccc(N2C(=O)/C(=C/c3ccccc3)SC2=S)cc1O	4.35	4.89
O=C(O)c1cccc(N2C(=O)/C(=C/c3ccc(O)cc3)SC2=S)c1	< 3.70	3.80
O=C(O)c1ccc(N2C(=O)/C(=C/c3ccc(F)cc3)SC2=S)cc1	–	5.38
O=C(O)c1cc(N2C(=O)/C(=C/c3ccccc3)SC2=S)ccc1O	3.89	4.89
CN1C(=S)N(c2ccc(C(=O)O)cc2)C(=O)/C1=C/c1ccc(F)cc1	–	< 3.70
CC/C=C1\SC(=S)N(c2cccc(C(=O)O)c2)C1=O	< 3.70	4.23
O=C(O)c1cccc(N2C(=O)/C(=C/C3CCCCC3)SC2=S)c1	< 3.70	5.14
O=C(O)Cc1ccc(N2C(=O)/C(=C/c3ccccc3)SC2=S)cc1	4.00	4.70
O=C(O)c1ccc(CN2C(=O)/C(=C/c3ccccc3)SC2=S)cc1	< 3.70	4.22
O=C(O)c1cccc(N2C(=O)/C(=C/c3ccc(F)cc3)SC2=S)c1	< 4.30	5.89
O=C(O)c1cccc(N2C(=O)/C(=C/c3ccccc3)SC2=S)c1 (stereo in doubt; 5m)	< 4.00	5.18
